Test results as given in ChEMBL document CHEMBL1136938, “Structure-activity relationships comparing N-(6-methylpyridin-yl)-substituted aryl amides to 2-methyl-6-(substituted-arylethynyl)pyridines or 2-methyl-4-(substituted-arylethynyl)thiazoles as novel metabotropic glutamate receptor subtype 5 antagonists” (J Med Chem, 2009).

Legend:
[1] = molecular target: Metabotropic glutamate receptor 6 (Homo sapiens) (UniProt O15303); assay: Antagonist activity at cloned mGluR6 expressed in CHO cells co-transfected with chimeric G protein Gqi9 assessed as inhibition of glutamate-induced intracellular inositol phosphate accumulation at 10 uM by phosphoinositide hydrolysis assay; format: functional, cell-based
[2] = molecular target: Metabotropic glutamate receptor 1 (Homo sapiens) (UniProt Q13255); assay: Antagonist activity at cloned mGluR1 expressed in CHO cells co-transfected with chimeric G protein Gqi9 assessed as inhibition of glutamate-induced intracellular inositol phosphate accumulation at 10 uM by phosphoinositide hydrolysis assay; format: functional, cell-based
[3] = molecular target: T1, Metabotropic glutamate receptor 5 (Rattus norvegicus, UniProt P31424); assay: Antagonist activity at rat mGluR5 expressed in HEK293A cells assessed as glutamate-induced calcium flux preincubated for 140 sec before glutamate challenge by calcium fluorescence assay; format: functional, cell-based, HEK293-A
[4] = molecular target: T2, Metabotropic glutamate receptor 5 (Homo sapiens, UniProt P41594); assay: Antagonist activity at cloned mGluR5 expressed in CHO cells co-transfected with chimeric G protein Gqi9 assessed as inhibition of glutamate-induced intracellular inositol phosphate accumulation at 10 uM by phosphoinositide hydrolysis assay; format: functional, cell-based
Target sequence in this assay (P41594 21-1212 limits assumed): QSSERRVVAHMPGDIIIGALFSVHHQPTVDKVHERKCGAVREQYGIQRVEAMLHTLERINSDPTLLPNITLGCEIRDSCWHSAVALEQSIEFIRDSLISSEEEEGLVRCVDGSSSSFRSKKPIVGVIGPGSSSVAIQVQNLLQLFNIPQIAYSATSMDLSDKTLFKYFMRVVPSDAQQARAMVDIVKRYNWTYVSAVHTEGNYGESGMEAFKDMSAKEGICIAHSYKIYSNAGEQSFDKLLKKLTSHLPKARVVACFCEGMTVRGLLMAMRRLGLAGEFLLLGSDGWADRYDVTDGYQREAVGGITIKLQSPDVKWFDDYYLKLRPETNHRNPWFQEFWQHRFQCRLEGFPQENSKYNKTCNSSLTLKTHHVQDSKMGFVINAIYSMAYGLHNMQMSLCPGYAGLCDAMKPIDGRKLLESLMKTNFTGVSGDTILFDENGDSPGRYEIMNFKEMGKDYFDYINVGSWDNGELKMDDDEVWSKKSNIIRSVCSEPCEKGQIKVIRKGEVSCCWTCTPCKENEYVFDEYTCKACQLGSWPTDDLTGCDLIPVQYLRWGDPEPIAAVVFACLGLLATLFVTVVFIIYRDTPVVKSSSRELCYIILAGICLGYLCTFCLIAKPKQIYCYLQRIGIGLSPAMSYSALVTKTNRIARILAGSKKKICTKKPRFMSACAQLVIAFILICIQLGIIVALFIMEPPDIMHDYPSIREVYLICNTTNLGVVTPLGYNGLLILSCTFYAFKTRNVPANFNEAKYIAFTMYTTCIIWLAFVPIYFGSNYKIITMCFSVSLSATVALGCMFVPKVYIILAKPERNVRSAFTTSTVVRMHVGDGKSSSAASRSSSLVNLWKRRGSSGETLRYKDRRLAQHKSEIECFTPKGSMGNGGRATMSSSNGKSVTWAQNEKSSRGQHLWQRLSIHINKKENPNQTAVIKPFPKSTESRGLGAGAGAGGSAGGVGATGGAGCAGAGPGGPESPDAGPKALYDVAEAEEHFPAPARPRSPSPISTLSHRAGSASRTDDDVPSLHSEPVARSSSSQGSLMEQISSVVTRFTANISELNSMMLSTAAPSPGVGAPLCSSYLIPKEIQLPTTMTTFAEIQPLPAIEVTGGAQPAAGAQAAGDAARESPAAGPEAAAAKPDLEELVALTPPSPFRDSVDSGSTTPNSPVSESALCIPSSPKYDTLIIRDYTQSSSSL

[5] = molecular target: T1, Metabotropic glutamate receptor 5; assay: Displacement of [3H]MPEP from rat brain recombinant mGluR5 expressed in HEK293T cells by scintillation counting; format: cell-based, HEK-293T
[6] = molecular target: T3, Sodium-dependent dopamine transporter (Homo sapiens, UniProt Q01959); assay: Displacement of [125I]RTI55 from human DAT expressed in HEK293 cells; format: cell-based
[7] = molecular target: T4, Sodium-dependent noradrenaline transporter (Homo sapiens, UniProt P23975); assay: Inhibition of norepinephrine uptake at human NET expressed in HEK293 cells; format: cell-based
[8] = molecular target: T5, Sodium-dependent serotonin transporter (Homo sapiens, UniProt P31645); assay: Inhibition of serotonin uptake at human SERT expressed in HEK293 cells; format: cell-based
[9] = molecular target: T3, Sodium-dependent dopamine transporter; assay: Inhibition of dopamine uptake at human DAT expressed in HEK293 cells; format: cell-based
[10] = molecular target: T5, Sodium-dependent serotonin transporter; assay: Displacement of [125I]RTI55 from human SERT expressed in HEK293 cells; format: cell-based
[11] = molecular target: T4, Sodium-dependent noradrenaline transporter; assay: Displacement of [125I]RTI55 from human NET expressed in HEK293 cells; format: cell-based
[12] = molecular target: T2, Metabotropic glutamate receptor 5; assay: Displacement of [3H]MPEP from cloned mGluR5 expressed in HEK293T cells by scintillation counting; format: cell-based, HEK-293T
Target sequence in this assay (P41594 whole entry): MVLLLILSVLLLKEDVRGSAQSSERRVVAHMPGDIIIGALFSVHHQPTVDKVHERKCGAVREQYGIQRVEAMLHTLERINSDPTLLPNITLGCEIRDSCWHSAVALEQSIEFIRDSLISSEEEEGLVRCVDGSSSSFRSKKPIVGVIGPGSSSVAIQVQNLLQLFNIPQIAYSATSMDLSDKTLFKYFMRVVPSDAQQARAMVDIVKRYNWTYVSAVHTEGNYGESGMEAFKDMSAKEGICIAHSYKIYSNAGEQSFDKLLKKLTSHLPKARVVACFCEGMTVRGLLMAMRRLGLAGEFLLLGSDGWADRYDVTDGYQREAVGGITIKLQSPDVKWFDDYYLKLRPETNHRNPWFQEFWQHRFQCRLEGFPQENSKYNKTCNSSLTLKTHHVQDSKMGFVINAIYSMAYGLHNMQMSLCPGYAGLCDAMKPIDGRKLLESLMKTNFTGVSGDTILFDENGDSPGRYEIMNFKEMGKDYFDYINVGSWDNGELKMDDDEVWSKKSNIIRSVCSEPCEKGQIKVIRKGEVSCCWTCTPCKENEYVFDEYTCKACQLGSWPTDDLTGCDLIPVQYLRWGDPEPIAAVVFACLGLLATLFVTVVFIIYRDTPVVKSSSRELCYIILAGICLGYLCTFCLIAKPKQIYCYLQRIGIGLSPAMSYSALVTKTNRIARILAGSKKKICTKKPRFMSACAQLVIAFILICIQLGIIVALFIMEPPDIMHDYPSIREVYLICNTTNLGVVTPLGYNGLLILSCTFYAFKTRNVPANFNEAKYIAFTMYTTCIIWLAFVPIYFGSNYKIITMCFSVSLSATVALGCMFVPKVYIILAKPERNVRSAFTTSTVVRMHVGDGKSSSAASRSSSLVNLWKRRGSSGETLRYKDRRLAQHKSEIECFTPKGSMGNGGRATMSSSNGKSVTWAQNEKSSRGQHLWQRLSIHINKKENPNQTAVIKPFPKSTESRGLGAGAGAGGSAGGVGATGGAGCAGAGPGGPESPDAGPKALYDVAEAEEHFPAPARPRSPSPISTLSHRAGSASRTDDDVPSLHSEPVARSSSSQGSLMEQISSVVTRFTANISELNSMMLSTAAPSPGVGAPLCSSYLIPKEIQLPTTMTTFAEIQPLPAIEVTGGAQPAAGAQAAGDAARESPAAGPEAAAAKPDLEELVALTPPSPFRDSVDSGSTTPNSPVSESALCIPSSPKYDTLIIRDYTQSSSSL

T4 sequence (P23975 whole entry): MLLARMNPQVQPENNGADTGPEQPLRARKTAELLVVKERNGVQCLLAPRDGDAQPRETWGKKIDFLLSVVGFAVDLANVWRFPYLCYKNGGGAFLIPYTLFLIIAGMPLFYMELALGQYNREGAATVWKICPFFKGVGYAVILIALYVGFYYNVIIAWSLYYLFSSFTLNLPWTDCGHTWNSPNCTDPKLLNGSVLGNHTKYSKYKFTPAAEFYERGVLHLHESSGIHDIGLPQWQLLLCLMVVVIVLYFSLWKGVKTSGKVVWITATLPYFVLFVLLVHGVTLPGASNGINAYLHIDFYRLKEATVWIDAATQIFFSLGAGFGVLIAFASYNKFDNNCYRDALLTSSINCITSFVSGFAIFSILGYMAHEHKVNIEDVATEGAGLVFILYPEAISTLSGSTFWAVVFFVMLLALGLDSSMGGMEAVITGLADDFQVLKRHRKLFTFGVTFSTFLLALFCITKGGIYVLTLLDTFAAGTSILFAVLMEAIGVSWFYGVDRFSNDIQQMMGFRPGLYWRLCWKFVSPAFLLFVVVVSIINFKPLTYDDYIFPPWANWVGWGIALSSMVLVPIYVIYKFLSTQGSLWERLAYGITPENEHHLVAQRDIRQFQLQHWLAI
T5 sequence (P31645 whole entry): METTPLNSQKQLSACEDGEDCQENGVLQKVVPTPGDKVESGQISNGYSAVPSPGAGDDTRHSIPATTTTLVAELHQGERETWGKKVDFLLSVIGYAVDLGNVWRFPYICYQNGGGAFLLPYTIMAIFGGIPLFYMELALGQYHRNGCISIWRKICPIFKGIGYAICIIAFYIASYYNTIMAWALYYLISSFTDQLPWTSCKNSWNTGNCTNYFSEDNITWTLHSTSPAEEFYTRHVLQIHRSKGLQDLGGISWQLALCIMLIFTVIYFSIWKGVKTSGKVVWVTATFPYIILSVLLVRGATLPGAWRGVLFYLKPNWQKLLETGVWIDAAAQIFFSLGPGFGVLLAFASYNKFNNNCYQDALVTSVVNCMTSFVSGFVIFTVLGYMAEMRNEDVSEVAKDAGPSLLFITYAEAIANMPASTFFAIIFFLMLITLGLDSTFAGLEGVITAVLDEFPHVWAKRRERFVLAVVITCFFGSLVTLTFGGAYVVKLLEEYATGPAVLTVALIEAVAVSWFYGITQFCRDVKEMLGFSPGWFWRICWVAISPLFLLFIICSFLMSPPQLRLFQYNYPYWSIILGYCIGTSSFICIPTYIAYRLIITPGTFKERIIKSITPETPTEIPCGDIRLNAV
T1 sequence (P31424 whole entry): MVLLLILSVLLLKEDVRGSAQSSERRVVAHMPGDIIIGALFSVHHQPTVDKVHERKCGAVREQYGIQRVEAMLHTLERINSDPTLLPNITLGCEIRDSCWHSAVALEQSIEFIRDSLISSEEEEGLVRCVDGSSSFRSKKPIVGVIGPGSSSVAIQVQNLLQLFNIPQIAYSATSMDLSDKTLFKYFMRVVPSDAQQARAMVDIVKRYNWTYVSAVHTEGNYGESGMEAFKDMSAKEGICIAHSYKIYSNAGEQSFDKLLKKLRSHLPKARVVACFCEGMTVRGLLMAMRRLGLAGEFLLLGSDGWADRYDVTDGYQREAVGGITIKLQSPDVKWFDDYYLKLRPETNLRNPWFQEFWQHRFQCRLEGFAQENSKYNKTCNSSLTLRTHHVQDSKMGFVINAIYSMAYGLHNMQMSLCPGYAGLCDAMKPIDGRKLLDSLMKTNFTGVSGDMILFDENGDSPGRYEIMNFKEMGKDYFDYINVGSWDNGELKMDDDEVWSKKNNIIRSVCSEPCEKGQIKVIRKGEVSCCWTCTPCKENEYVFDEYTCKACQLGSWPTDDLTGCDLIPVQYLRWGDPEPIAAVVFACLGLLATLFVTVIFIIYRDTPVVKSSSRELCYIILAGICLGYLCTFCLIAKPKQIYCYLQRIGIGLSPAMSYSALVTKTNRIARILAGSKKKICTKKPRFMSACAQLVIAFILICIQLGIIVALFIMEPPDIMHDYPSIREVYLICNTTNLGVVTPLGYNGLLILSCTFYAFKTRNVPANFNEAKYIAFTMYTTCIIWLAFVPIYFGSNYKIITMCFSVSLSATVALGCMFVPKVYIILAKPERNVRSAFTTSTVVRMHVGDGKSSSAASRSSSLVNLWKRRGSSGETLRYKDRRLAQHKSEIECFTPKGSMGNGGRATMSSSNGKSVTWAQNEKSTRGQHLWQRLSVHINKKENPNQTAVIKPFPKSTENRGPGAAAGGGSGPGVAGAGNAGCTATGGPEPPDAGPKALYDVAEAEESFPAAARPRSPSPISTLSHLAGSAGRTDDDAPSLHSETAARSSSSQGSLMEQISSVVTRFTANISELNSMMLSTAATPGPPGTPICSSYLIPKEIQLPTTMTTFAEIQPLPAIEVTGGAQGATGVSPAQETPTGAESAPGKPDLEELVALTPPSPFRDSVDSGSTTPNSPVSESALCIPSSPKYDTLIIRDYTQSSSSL

Structure (SMILES)	inhibition [1]	inhibition [2]	IC50 [3]	inhibition [4]	Ki [5]	Ki [6]	Ki [7]	Ki [8]	Ki [9]	Ki [10]	Ki [11]	Ki [12]
Cc1cccc(C#Cc2ccc(-c3ccc(F)cc3)c(C#N)c2)n1	< 70%	< 70%	7.19 nM	> 70%	3 nM	–	–	–	–	–	–	–
Cc1nc(C#Cc2ccc(-c3cccnc3)nc2)cs1	< 70%	< 70%	–	> 70%	–	–	–	–	–	–	–	–
Cc1cccc(NC(=O)c2cncc(-c3cccnc3)c2)n1	< 70%	< 70%	–	> 70%	> 10000 nM	–	–	–	–	–	–	–
Cc1nc(C#Cc2ccc(-c3cccnc3)c(F)c2)cs1	< 70%	< 70%	–	> 70%	–	> 6000 nM	> 6000 nM	> 6000 nM	> 6000 nM	> 6000 nM	> 6000 nM	–
Cc1cccc(NC(=O)c2cc(F)cc(C#N)c2)n1	< 70%	< 70%	21.7 nM	> 70%	65.5 nM	–	–	–	–	–	–	–
Cc1nc(C#Cc2cc(F)cc(-c3cccnc3)c2)cs1	< 70%	< 70%	4.83 nM	> 70%	–	> 6000 nM	> 6000 nM	> 6000 nM	> 6000 nM	> 6000 nM	> 6000 nM	2.7 nM
Cc1nc(C#Cc2cccc(-c3ccccc3)c2)cs1	< 70%	< 70%	–	> 70%	–	–	–	–	–	–	–	–
Cc1nc(C#Cc2cc(F)cc(C#N)c2)cs1	< 70%	< 70%	0.813 nM	> 70%	–	–	–	–	–	–	–	0.9 nM
Cc1cccc(NC(=O)c2ccc(Oc3ccccc3)cc2)n1	< 70%	< 70%	–	> 70%	–	–	–	–	–	–	–	7290 nM
Cc1cccc(NC(=O)c2ccc(-c3ccccc3)nc2)n1	< 70%	< 70%	> 3000 nM	> 70%	356 nM	–	–	–	–	–	–	–
Cc1cccc(NC(=O)c2ccc(-c3ccc(F)cc3)c(C#N)c2)n1	< 70%	< 70%	4.57 nM	> 70%	134 nM	–	–	–	–	–	–	–
Cc1cccc(C#Cc2ccccc2)n1	< 70%	< 70%	–	> 70%	–	–	–	–	–	–	–	–
Cc1cccc(NC(=O)c2ccc(F)c(F)c2)n1	< 70%	< 70%	–	> 70%	–	–	–	–	–	–	–	> 10000 nM
Cc1cccc(NC(=O)c2cccc(-c3ccccc3)c2)n1	< 70%	< 70%	–	> 70%	7300 nM	–	–	–	–	–	–	–
Cc1cccc(NC(=O)c2ccc(-c3cccnc3)c(Cl)c2)n1	< 70%	< 70%	> 1000 nM	> 70%	2780 nM	–	–	–	–	–	–	–
Cc1cccc(NC(=O)c2ccc(-c3cccnc3)c(C#N)c2)n1	< 70%	< 70%	> 1000 nM	> 70%	2040 nM	–	–	–	–	–	–	–
Cc1cccc(NC(=O)c2ccc(Br)cc2)n1	< 70%	< 70%	–	> 70%	–	–	–	–	–	–	–	> 10000 nM
Cc1cccc(NC(=O)c2ccc(-c3cccnc3)nc2)n1	< 70%	< 70%	> 3000 nM	> 70%	2480 nM	–	–	–	–	–	–	–
Cc1cccc(NC(=O)c2cc(F)cc(-c3cccnc3)c2)n1	< 70%	< 70%	–	> 70%	702 nM	–	–	–	–	–	–	–

Structure (SMILES)	inhibition [1]	inhibition [2]	IC50 [3]	inhibition [4]	Ki [5]	Ki [6]	Ki [7]	Ki [8]	Ki [9]	Ki [10]	Ki [11]	Ki [12]
Cc1cccc(NC(=O)c2cc(-c3cc(F)cc(F)c3)ccn2)n1	< 70%	< 70%	98.1 nM	> 70%	–	–	–	–	–	–	–	–
Cc1cccc(NC(=O)c2ccc(-c3cccnc3)c(F)c2)n1	< 70%	< 70%	> 3000 nM	> 70%	7720 nM	–	–	–	–	–	–	–
Cc1cccc(NC(=O)c2cccc(Cl)c2)n1	< 70%	< 70%	1870 nM	> 70%	1730 nM	–	–	–	–	–	–	–
Cc1cccc(NC(=O)c2ccc(-c3cccc(C#N)c3)cc2)n1	< 70%	< 70%	–	≤ 70%	–	–	–	–	–	–	–	> 10000 nM
COc1ccccc1-c1cncc(C(=O)Nc2cccc(C)n2)c1	< 70%	< 70%	–	> 70%	4920 nM	–	–	–	–	–	–	–
Cc1cccc(NC(=O)c2ccc(-c3cccc(F)c3)c(C#N)c2)n1	< 70%	< 70%	–	> 70%	–	> 6000 nM	> 6000 nM	> 6000 nM	> 6000 nM	> 6000 nM	> 6000 nM	–
Cc1cccc(C#Cc2cccc(C#N)c2)n1	< 70%	< 70%	0.415 nM	> 70%	1.3 nM	–	–	–	–	–	–	–
Cc1cccc(NC(=O)c2ccc(C#N)cc2)n1	< 70%	< 70%	–	> 70%	–	–	–	–	–	–	–	> 10000 nM
COc1ccccc1-c1cc(F)cc(C(=O)Nc2cccc(C)n2)c1	< 70%	< 70%	–	> 70%	> 10000 nM	–	–	–	–	–	–	–
Cc1cccc(NC(=O)c2cc(F)cc(F)c2)n1	< 70%	< 70%	–	≤ 70%	–	–	–	–	–	–	–	7580 nM
Cc1cccc(NC(=O)c2ccc(-c3ccccc3)c(C#N)c2)n1	–	–	13.7 nM	–	–	> 6000 nM	> 6000 nM	> 6000 nM	> 6000 nM	> 6000 nM	> 6000 nM	9.8 nM
Cc1cccc(NC(=O)c2cc(F)cc(-c3ccccc3C)c2)n1	< 70%	< 70%	–	> 70%	610 nM	–	–	–	–	–	–	–
Cc1cccc(NC(=O)c2cccc(C#N)c2)n1	< 70%	< 70%	490 nM	> 70%	330 nM	–	–	–	–	–	–	–
Cc1cccc(NC(=O)c2ccc(-c3ccccc3)cc2)n1	< 70%	< 70%	–	≤ 70%	–	–	–	–	–	–	–	7000 nM
Cc1cccc(NC(=O)c2ccc(-c3cccc4ccccc34)c(C#N)c2)n1	< 70%	< 70%	640 nM	> 70%	72 nM	–	–	–	–	–	–	–
Cc1nc(C#Cc2cccnc2)cs1	< 70%	< 70%	–	< 70%	–	–	–	–	–	–	–	–
Cc1nc(C#Cc2ccc(-c3ccccc3)nc2)cs1	< 70%	< 70%	–	> 70%	–	–	–	–	–	–	–	–
Cc1cccc(NC(=O)c2ccc(-c3cccc(Cl)c3)cc2)n1	< 70%	< 70%	–	≤ 70%	–	–	–	–	–	–	–	3330 nM
